Measured values as given in US20240238358A1, “TRADITIONAL CHINESE MEDICINE COMPOSITION FOR INFECTIOUS DISEASE RECOVERY AND USE THEREOF” (CHINA RESOURCES SANJIU MEDICAL & PHARMACEUTICAL CO., LTD., priority 2021, published 2024).

Test system: ARE luciferase activity of 293T cells
Assay: ARE luciferase reporter gene activity in transfected 293T cells (dual-luciferase, anti-oxidation activity)
Format: cell-based
Conditions: tBHQ 10 μM, 6 h, n = 18, control = 1 ± 0.19, relative luciferase activity
Procedure: The 293T cells in the logarithmic growth phase were inoculated in a 96-well cell culture plate at a density of 2×10^5 cells/mL. After the growth density of the cells reached 70%-80%, the ARE and NF-kB luciferase reporter plasmids pGL4.37 and pGL4.32 (100 ng/well) and the […] luciferase reporter plasmid pGL4.75 (10 ng/well) were simultaneously transfected using the PEI (1 mg/mL) transfection reagent and then cultured for 24 h. After 24 h of culture, cells transfected with the ARE luciferase reporter plasmid pGL4.37 were added to tBHQ (10 μM) and each of the sample solutions of the traditional Chinese compositions of the present disclosure with safe concentrations, respectively, a control group was set, and the cells were cultured for 6 h; cells transfected with the NF-kB luciferase reporter plasmid pGL4.32 were added to TNF-α (10 ng/mL)-dexamethasone (10 μM) diluted with a complete medium and each of the sample solutions of the traditional Chinese compositions of the present disclosure with safe concentrations, respectively, a control group and a model group (10 ng/mL TNF-a) were set, and the cells were cultured for 6 h. The supernatant was discarded, the cells were rinsed with PBS, and after the cells were lysed, the cells were detected by a dual-luciferase detection system. Six duplicate wells were set for each experiment, and each experiment was repeated three times. […]

Q: With CC(C)(C)c1cc(O)ccc1O [tBHQ, tertiary butylhydroquinone] as the compound, how does the “ARE luciferase activity of 293T cells (x ± SD)” value read?
A: The value was 6.82 ± 1.28.
